“Also recorded” adds a separate entry of the source.
System: rat of gait disturbance model by cauda equina compression
Assay: Walking ability (treadmill) in rat gait disturbance model by cauda equina compression
Format: in vivo
Details: spinal canal stenosis model, administered orally for 11 days after the operation, vs negative control (carboxymethylcellulose or toragacanth gum), Dunnett's test, FIG. 1 and FIG. 2
Source text: Improvement effect of this invented compound in a rat model of gait disturbance model by cauda equina compression:
<Method of Making an Animal Model>
A rat of gait disturbance model by cauda equina compression was made by the method of Takenobu et al. (J. Neurosci. Methods, 104(2), 191-198 (2002)). Namely, a rat was anesthetized by sodium pentobarbital, removed its dorsal hair and then was fixed its body in the prone position. After disinfection of the back with Chlorhexidine gluconate (5% Hibiten Liquid: Sumitomo Pharmaceuticals), the lumbar was incised along the midline to expose the spine. After excision of the fifth lumbar spinous process, silicon rubber 1×4×1.25 mm (height×length×width) were inserted into the fourth and the sixth lumbar spinal canals from small holes of vertebral arch which was made by mini-drill. […]
The rats were put on the running belt, and adapted to the condition where the grid was sent an electric current (0.04 mA-4 mA) for three minutes or more. […] The distance between the point to walk and the point to give up walk, in other words, the point where it is impossible for them to walk even though the stimulation (sound, contact and electricity) to make them walk was given, was measured with the mileometer built into the equipment. […] The results obtained from the compounds- and negative control-groups were analyzed by the Dunnett's multiple comparison test (*P<0.05). […]

**Q.** How did the “improvement of walking dysfunction (walking distance on treadmill)” value turn out when O=C1C[C@@]2(C(=O)N1)C(=O)N(Cc1ccc(Br)cc1F)C(=O)c1cccn12 [Compound B, (R)-2-(4-bromo-2-fluorobenzyl)spiro[1,2,3,4-tetrahydropyrrolo[1,2-a]pyrazine-4,3′-pyrrolidine]-1,2′,3,5′-tetrone] was run?
**A.** improved the pathology; also recorded: improved the walking dysfunction

From US20060058310A1, “Remedies for vertebral canal stenosis” (priority 2002, published 2006)
